Assay results as given in PMC8632988, “Inhibition of SYK and cSrc kinases can protect bone and cartilage in preclinical models of osteoarthritis and rheumatoid arthritis” (Scientific Reports, 2021).

Tests used:
Assay in all cases: Kinase selectivity profile assay
Format in all cases: biochemical
PLK3 = biological target: T1, PLK3 (Homo sapiens, UniProt Q9H4B4); settings: 500 nM; relative to DMSO; read-out: Residual enzymatic activity
T1 construct: purchased Reaction Biology Corporation
Protocol: (§1) The activity of MT-SYK-03 against cSrc kinase and selectivity profile towards other 341 kinases was determined at Reaction Biology Corporation (Malvern, PA, USA) using the standard kinase assay protocol. […]; unbound phosphate was removed by extensive washing of filters in phosphoric acid. Kinase activity data was expressed as the percent remaining kinase activity in test samples compared to vehicle (dimethyl sulfoxide) reactions based on the radioactivity of reaction products (see Table S2). Experiment was replicated twice.

CK1d = biological target: T2, CK1d (Homo sapiens, UniProt P48730); settings: 500 nM; relative to DMSO; read-out: Residual enzymatic activity
T2 construct: purchased Reaction Biology Corporation
Protocol: as §1

DMPK2 = biological target: T3, DMPK2 (Homo sapiens, UniProt Q6DT37); settings: 500 nM; relative to DMSO; read-out: Residual enzymatic activity
T3 construct: purchased Reaction Biology Corporation
Protocol: as §1

TLK1 = biological target: T4, TLK1 (Homo sapiens, UniProt Q9UKI8); settings: 500 nM; relative to DMSO; read-out: Residual enzymatic activity
T4 construct: purchased Reaction Biology Corporation
Protocol: as §1

TRKB = biological target: T5, TRKB (Homo sapiens, UniProt Q16620); settings: 500 nM; relative to DMSO; read-out: Residual enzymatic activity
T5 construct: purchased Reaction Biology Corporation
Protocol: as §1

CK2a = biological target: T6, CK2a (Homo sapiens, UniProt P68400); settings: 500 nM; relative to DMSO; read-out: Residual enzymatic activity
T6 construct: purchased Reaction Biology Corporation
Protocol: as §1

CAMK2d = biological target: T7, CAMK2d (Homo sapiens, UniProt Q13557); settings: read-out: Residual enzymatic activity
T7 construct: purchased Reaction Biology Corporation
Protocol: as §1

FGFR3 = biological target: T8, FGFR3 (Homo sapiens, UniProt P22607); settings: 500 nM, relative to DMSO
T8 construct: purchased Reaction Biology Corporation
Protocol: as §1

ERK1 = biological target: T9, ERK1 (Homo sapiens, UniProt P27361); settings: 500 nM; relative to DMSO; read-out: Residual enzymatic activity
T9 construct: purchased Reaction Biology Corporation
Protocol: as §1

MST4 = biological target: T10, MST4 (Homo sapiens, UniProt Q9P289); settings: 500 nM; relative to DMSO; read-out: Residual enzymatic activity
T10 construct: purchased Reaction Biology Corporation
Protocol: as §1

RSK3 = biological target: T11, RSK3 (Homo sapiens, UniProt Q15349); settings: 500 nM; relative to DMSO; read-out: Residual enzymatic activity
T11 construct: purchased Reaction Biology Corporation
Protocol: as §1

FLT4/VEGFR3 = biological target: T12, FLT4/VEGFR3 (Homo sapiens, UniProt P35916)
T12 construct: purchased Reaction Biology Corporation (assay service)
Protocol: as §1

PKCmu/PRKD1 = biological target: T13, PKCmu/PRKD1 (Homo sapiens, UniProt Q15139); settings: 500 nM; relative to DMSO; read-out: Residual enzymatic activity
T13 construct: purchased Reaction Biology Corporation
Protocol: as §1

TAOK3/JIK = biological target: T14, TAOK3/JIK (Homo sapiens, UniProt Q9H2K8); settings: 500 nM; relative to DMSO; read-out: Residual enzymatic activity
T14 construct: purchased Reaction Biology Corporation
Protocol: as §1

PKN2/PRK2 = biological target: T15, PKN2/PRK2 (Homo sapiens, UniProt Q16513); settings: 500 nM; relative to DMSO; read-out: Residual enzymatic activity
T15 construct: purchased Reaction Biology Corporation
Protocol: as §1

RON/MST1R = biological target: T16, RON/MST1R (Homo sapiens, UniProt Q04912); settings: 500 nM; relative to DMSO; read-out: Residual enzymatic activity
T16 construct: purchased Reaction Biology Corporation
Protocol: as §1

PKA = biological target: T17, PKA (Homo sapiens, UniProt P17612); settings: 500 nM, relative to DMSO
T17 construct: purchased Reaction Biology Corporation
Protocol: as §1

CDK2/Cyclin A1 = biological target: T18, CDK2/Cyclin A1 (Homo sapiens, UniProt P24941); settings: 500 nM; relative to DMSO; read-out: Residual enzymatic activity
T18 construct: purchased Reaction Biology Corporation
Protocol: as §1

DMPK = biological target: T19, DMPK (Homo sapiens, UniProt Q09013); settings: 500 nM; relative to DMSO; read-out: Residual enzymatic activity
T19 construct: purchased Reaction Biology Corporation
Protocol: as §1

HIPK4 = biological target: T20, HIPK4 (Homo sapiens, UniProt Q8NE63); settings: 500 nM; relative to DMSO; read-out: Residual enzymatic activity
T20 construct: purchased Reaction Biology Corporation
Protocol: as §1

DAPK1 = biological target: T21, DAPK1 (Homo sapiens, UniProt P53355); settings: 500 nM; relative to DMSO; read-out: Residual enzymatic activity
T21 construct: purchased Reaction Biology Corporation
Protocol: as §1

PDK1/PDPK1 = biological target: T22, PDK1/PDPK1 (Homo sapiens, UniProt O15530); settings: 500 nM; relative to DMSO; read-out: Residual enzymatic activity
T22 construct: purchased Reaction Biology Corporation
Protocol: as §1

PKCg = biological target: T23, PKCg (Homo sapiens, UniProt P05129); settings: 500 nM; relative to DMSO; read-out: Residual enzymatic activity
T23 construct: purchased Reaction Biology Corporation
Protocol: as §1

TNIK = biological target: T24, TNIK (Homo sapiens, UniProt Q9UKE5); settings: 500 nM; relative to DMSO; read-out: Residual enzymatic activity
T24 construct: purchased Reaction Biology Corporation
Protocol: as §1

GRK3 = biological target: T25, GRK3 (Homo sapiens, UniProt P35626); settings: 500 nM; relative to DMSO; read-out: Residual enzymatic activity
T25 construct: purchased Reaction Biology Corporation
Protocol: as §1

TESK1 = biological target: T26, TESK1 (Homo sapiens, UniProt Q15569); settings: 500 nM; relative to DMSO; read-out: Residual enzymatic activity
T26 construct: purchased Reaction Biology Corporation
Protocol: as §1

RSK1 = biological target: T27, RSK1 (Homo sapiens, UniProt Q15418); settings: 500 nM; relative to DMSO; read-out: Residual enzymatic activity
T27 construct: purchased Reaction Biology Corporation
Protocol: as §1

GSK3a = biological target: T28, GSK3a (Homo sapiens, UniProt P49840); settings: 500 nM; relative to DMSO; read-out: Residual enzymatic activity
T28 construct: purchased Reaction Biology Corporation
Protocol: as §1

NEK6 = biological target: T29, NEK6 (Homo sapiens, UniProt Q9HC98); settings: 500 nM; relative to DMSO; read-out: Residual enzymatic activity
T29 construct: purchased Reaction Biology Corporation
Protocol: as §1

STK33 = biological target: T30, STK33 (Homo sapiens, UniProt Q9BYT3); settings: 500 nM; relative to DMSO; read-out: Residual enzymatic activity
T30 construct: purchased Reaction Biology Corporation
Protocol: as §1

PAK4 = biological target: T31, PAK4 (Homo sapiens, UniProt O96013); settings: 500 nM; relative to DMSO; read-out: Residual enzymatic activity
T31 construct: purchased Reaction Biology Corporation
Protocol: as §1

VRK2 = biological target: T32, VRK2 (Homo sapiens, UniProt Q86Y07); settings: 500 nM; relative to DMSO; read-out: Residual enzymatic activity
T32 construct: purchased Reaction Biology Corporation
Protocol: as §1

TIE2/TEK = biological target: T33, TIE2/TEK (Homo sapiens, UniProt Q02763); settings: 500 nM; relative to DMSO
T33 construct: purchased Reaction Biology Corporation
Protocol: as §1

HPK1/MAP4K1 = biological target: T34, HPK1/MAP4K1 (Homo sapiens, UniProt Q92918); settings: 500 nM; relative to DMSO; read-out: Residual enzymatic activity
T34 construct: purchased Reaction Biology Corporation
Protocol: as §1

LCK2/ICK = biological target: T35, LCK2/ICK (Homo sapiens, UniProt Q9UPZ9); settings: 500 nM; relative to DMSO; read-out: Residual enzymatic activity
T35 construct: purchased Reaction Biology Corporation
Protocol: as §1

DYRK1B = biological target: T36, DYRK1B (Homo sapiens, UniProt Q9Y463); settings: 500 nM; relative to DMSO; read-out: Residual enzymatic activity
T36 construct: purchased Reaction Biology Corporation
Protocol: as §1

CDK7/cyclin H = biological target: T37, CDK7/cyclin H (Homo sapiens, UniProt P50613); settings: 500 nM; relative to DMSO; read-out: Residual enzymatic activity
T37 construct: purchased Reaction Biology Corporation
Protocol: as §1

EPHA4 = biological target: T38, EPHA4 (Homo sapiens, UniProt P54764); settings: 500 nM, relative to DMSO
T38 construct: purchased Reaction Biology Corporation
Protocol: as §1

CLK4 = biological target: T39, CLK4 (Homo sapiens, UniProt Q9HAZ1); settings: 500 nM; relative to DMSO; read-out: Residual enzymatic activity
T39 construct: purchased Reaction Biology Corporation
Protocol: as §1

DLK/MAP3K12 = biological target: T40, DLK/MAP3K12 (Homo sapiens, UniProt Q12852); settings: 500 nM; relative to DMSO; read-out: Residual enzymatic activity
T40 construct: purchased Reaction Biology Corporation
Protocol: as §1

[1] = read-out: Residual enzymatic activity

T8 sequence (P22607 23-806): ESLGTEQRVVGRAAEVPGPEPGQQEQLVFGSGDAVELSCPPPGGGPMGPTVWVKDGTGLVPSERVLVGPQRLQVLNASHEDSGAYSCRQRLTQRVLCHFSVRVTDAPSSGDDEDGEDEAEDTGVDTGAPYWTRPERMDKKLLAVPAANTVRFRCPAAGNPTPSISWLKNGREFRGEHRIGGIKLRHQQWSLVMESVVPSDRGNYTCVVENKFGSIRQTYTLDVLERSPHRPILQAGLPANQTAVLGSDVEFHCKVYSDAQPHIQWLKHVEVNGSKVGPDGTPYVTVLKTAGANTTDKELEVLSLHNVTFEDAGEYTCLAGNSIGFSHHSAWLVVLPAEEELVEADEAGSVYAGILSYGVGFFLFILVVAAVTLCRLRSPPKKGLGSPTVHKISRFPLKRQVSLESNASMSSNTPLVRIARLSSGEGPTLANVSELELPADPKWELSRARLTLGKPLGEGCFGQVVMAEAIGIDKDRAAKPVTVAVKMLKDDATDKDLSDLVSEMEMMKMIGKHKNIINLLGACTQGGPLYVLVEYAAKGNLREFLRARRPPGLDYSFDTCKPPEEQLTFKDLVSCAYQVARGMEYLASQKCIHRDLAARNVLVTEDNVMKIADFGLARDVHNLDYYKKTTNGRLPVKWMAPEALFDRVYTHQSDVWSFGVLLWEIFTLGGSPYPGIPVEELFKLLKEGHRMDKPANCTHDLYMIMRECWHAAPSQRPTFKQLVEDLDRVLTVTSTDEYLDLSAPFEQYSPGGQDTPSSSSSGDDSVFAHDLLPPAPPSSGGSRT
T12 sequence (P35916 25-1363): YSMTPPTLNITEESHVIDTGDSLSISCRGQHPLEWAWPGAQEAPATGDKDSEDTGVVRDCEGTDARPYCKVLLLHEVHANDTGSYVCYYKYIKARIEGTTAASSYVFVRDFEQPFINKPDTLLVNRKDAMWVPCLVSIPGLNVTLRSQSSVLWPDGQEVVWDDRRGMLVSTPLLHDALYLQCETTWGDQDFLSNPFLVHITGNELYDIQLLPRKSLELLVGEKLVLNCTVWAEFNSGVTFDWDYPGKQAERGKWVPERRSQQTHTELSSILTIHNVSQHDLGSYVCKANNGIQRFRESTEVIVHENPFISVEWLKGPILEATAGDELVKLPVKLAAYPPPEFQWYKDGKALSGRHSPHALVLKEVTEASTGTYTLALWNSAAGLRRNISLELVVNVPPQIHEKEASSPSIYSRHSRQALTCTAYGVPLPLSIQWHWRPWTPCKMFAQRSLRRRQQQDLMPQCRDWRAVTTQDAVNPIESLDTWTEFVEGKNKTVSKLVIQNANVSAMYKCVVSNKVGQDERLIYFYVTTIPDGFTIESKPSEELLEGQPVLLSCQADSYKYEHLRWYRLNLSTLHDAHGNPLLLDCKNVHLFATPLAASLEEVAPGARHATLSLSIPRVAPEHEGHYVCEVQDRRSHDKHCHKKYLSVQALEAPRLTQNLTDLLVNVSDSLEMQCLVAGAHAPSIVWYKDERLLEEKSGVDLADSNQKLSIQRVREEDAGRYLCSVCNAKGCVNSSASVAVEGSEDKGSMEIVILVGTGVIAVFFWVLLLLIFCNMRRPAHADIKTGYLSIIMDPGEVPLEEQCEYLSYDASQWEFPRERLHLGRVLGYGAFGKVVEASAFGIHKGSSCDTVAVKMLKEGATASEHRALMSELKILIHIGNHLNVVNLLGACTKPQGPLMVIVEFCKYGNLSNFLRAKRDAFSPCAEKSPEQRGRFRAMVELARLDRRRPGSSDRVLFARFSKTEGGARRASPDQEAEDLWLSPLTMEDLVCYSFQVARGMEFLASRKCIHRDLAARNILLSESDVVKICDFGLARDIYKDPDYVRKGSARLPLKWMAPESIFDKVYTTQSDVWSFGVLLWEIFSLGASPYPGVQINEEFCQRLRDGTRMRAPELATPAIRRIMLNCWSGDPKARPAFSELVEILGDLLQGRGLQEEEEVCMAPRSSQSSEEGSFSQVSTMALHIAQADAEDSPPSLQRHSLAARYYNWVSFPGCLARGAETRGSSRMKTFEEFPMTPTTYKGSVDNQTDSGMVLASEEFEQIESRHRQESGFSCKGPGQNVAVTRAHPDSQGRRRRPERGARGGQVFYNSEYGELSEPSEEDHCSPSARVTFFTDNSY
T38 sequence (P54764 20-986): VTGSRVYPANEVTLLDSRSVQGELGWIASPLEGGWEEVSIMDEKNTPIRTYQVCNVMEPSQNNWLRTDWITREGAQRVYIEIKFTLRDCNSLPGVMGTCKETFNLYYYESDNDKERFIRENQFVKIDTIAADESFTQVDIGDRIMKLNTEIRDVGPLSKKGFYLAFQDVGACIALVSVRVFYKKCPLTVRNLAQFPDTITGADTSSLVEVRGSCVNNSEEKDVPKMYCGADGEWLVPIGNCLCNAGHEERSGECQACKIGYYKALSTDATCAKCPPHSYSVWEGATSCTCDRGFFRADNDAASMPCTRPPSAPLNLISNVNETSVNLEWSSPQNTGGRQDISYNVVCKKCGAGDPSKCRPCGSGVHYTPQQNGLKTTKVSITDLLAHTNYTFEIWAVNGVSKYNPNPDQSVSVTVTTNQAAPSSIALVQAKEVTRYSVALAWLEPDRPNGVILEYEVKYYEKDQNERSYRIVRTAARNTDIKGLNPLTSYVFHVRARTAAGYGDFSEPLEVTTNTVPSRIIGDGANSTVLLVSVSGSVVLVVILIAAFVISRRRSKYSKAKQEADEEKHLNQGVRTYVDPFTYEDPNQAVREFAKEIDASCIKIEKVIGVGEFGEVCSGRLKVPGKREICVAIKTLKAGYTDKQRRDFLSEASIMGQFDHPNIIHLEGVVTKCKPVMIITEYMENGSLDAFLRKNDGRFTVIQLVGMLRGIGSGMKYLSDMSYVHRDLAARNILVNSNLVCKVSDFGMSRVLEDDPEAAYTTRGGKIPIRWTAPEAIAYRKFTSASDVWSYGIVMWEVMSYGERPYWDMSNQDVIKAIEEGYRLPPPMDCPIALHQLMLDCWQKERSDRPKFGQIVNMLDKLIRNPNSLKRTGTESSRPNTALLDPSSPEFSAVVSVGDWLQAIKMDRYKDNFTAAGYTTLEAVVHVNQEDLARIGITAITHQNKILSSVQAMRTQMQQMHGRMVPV
T32 sequence (Q86Y07 whole entry): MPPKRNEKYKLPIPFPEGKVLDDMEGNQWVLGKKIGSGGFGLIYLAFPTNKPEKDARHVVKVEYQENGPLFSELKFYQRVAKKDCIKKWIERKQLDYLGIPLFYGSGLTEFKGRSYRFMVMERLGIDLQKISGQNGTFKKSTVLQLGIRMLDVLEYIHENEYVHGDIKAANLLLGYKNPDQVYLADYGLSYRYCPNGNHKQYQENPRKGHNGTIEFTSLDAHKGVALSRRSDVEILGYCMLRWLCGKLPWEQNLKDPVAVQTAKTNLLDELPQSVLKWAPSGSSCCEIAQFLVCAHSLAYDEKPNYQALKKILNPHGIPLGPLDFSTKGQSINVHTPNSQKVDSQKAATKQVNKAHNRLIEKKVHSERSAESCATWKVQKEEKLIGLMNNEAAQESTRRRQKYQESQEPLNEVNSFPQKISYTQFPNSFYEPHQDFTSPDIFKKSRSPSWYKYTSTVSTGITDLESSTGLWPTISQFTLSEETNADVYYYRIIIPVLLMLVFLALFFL
T29 sequence (Q9HC98 whole entry): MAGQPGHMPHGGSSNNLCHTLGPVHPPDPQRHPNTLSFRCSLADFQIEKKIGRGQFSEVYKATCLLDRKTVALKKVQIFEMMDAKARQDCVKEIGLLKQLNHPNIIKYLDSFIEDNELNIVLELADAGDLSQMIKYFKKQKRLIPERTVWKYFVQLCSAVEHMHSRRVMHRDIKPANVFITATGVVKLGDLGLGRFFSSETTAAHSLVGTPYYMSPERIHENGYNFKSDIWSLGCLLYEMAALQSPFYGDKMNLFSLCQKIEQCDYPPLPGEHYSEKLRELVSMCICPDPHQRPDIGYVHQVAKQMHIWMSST
T2 sequence (P48730 whole entry): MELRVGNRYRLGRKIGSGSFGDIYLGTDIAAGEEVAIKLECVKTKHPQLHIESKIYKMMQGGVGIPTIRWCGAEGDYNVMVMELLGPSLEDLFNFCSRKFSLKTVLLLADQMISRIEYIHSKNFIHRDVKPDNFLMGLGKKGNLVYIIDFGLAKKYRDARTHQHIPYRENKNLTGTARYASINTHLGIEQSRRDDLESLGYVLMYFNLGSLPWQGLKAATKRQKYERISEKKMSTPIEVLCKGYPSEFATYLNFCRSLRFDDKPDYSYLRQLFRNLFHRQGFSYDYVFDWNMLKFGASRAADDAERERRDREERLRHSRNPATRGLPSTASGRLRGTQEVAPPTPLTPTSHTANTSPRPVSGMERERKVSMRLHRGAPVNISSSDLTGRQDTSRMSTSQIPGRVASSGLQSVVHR
T39 sequence (Q9HAZ1 whole entry): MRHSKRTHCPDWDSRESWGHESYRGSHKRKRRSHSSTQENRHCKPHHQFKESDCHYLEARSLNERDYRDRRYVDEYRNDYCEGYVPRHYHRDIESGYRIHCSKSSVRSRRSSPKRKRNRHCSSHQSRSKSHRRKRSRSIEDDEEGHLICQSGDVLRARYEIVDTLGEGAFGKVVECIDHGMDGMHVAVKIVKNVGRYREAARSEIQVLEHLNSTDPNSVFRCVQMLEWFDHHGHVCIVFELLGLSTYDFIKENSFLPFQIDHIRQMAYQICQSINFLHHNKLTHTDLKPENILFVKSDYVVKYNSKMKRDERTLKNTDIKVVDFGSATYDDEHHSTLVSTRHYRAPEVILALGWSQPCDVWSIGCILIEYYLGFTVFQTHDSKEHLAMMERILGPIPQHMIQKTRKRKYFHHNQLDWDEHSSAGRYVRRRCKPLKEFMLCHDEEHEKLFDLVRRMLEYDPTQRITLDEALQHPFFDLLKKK

Compound `COc1cc(Nc2ncnc(Nc3cc4c(cn3)NC(=O)C(C)(C)O4)n2)cc(OC)c1OC` [MT-SYK-03] has a remaining activity at 0.5 µM (PLK3) of 97.6%, a remaining activity at 0.5 µM (CK1d) of 86.5% and a remaining activity at 0.5 µM (DMPK2) of 96.4%. It also gave a remaining activity at 0.5 µM (TLK1) of 101%, a remaining activity at 0.5 µM (TRKB) of 92.4% and a remaining activity at 0.5 µM (CK2a) of 94.3%. For the same compound, the remaining activity at 0.5 µM (CAMK2d) was 104%, the Residual enzymatic activity (FGFR3) was 57.2% and the remaining activity at 0.5 µM (FGFR3; [1]) was > 54%. It also gave a remaining activity at 0.5 µM (ERK1) of 119%, a remaining activity at 0.5 µM (MST4) of 112% and a remaining activity at 0.5 µM (RSK3) of 91.6%. It also gave a remaining activity at 0.5 µM (FLT4/VEGFR3; 500 nM, relative to DMSO, read-out: Residual enzymatic activity) of 40.4%, an IC50 (FLT4/VEGFR3; 10-dose mode, threefold serial dilution from 10 μM) of 55.4 nM and a remaining activity at 0.5 µM (PKCmu/PRKD1) of 98.5%. It also gave a remaining activity at 0.5 µM (TAOK3/JIK) of 108%, a remaining activity at 0.5 µM (PKN2/PRK2) of 95.6% and a remaining activity at 0.5 µM (RON/MST1R) of 98.4%. For the same compound, the Residual enzymatic activity (PKA) was “did not inhibit any”, the remaining activity at 0.5 µM (PKA; [1]) was 96.4% and the remaining activity at 0.5 µM (CDK2/Cyclin A1) was 90.7%. It also gave a remaining activity at 0.5 µM (DMPK) of 94.3%, a remaining activity at 0.5 µM (HIPK4) of 112% and a remaining activity at 0.5 µM (DAPK1) of 113%. It also gave a remaining activity at 0.5 µM (PDK1/PDPK1) of 85.5%, a remaining activity at 0.5 µM (PKCg) of 103% and a remaining activity at 0.5 µM (TNIK) of 78.6%. For the same compound, the remaining activity at 0.5 µM (GRK3) was 103%, the remaining activity at 0.5 µM (TESK1) was 94.5% and the remaining activity at 0.5 µM (RSK1) was 105%. It also gave a remaining activity at 0.5 µM (GSK3a) of 74.2%, a remaining activity at 0.5 µM (NEK6) of 103% and a remaining activity at 0.5 µM (STK33) of 70.5%. For the same compound, the remaining activity at 0.5 µM (PAK4) was 92.1%, the remaining activity at 0.5 µM (VRK2) was 129% and the Residual enzymatic activity (TIE2/TEK) was 92.9%. It also gave a remaining activity at 0.5 µM (HPK1/MAP4K1) of 107%, a remaining activity at 0.5 µM (LCK2/ICK) of 110% and a remaining activity at 0.5 µM (DYRK1B) of 90.6%. The remaining activity at 0.5 µM (CDK7/cyclin H) was 99.6%, the Residual enzymatic activity (EPHA4) was 58.1% and the remaining activity at 0.5 µM (EPHA4; [1]) was > 54%. It also gave a remaining activity at 0.5 µM (CLK4) of 88.7% and a remaining activity at 0.5 µM (DLK/MAP3K12) of 83.7%.
